Like-named read-outs stand apart in the source and are kept apart here.
Key:
Assay type in all cases: in vivo
[1] = tested on: ryegrass, Italian (Italian ryegrass, Lolium multiflorum); assay: Test A postemergence; conditions: Lolium multiflorum, post-emergence, 240 h, Postemergence; for pest or weed control at 125 g/ha: 125 g ai/ha; for pest or weed control at 500 g/ha: 500 g ai/ha, visual injury, 0 to 100 scale (0 no effect, 100 complete control), approx. 10 d
In short: (§1)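 Preemergence directed soil spray on seeded pots, or postemergence application to plants 2–10 cm, one- to two-leaf. Solvent mixture non-phytotoxic, with surfactant. Scored ~10 d later, visually, 0–100 vs untreated.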

[2] = tested on: pigweed (Amaranthus retroflexus); assay: Test A postemergence; conditions: Amaranthus retroflexus, post-emergence, 240 h, Postemergence; for pest or weed control at 125 g/ha: 125 g ai/ha; for pest or weed control at 500 g/ha: 500 g ai/ha, visual injury, 0 to 100 scale (0 no effect, 100 complete control), approx. 10 d
In short: as §1

corn (Zea mays) = assay: Test A postemergence; conditions: Zea mays, post-emergence, 240 h, Postemergence; for plant injury at 125 g/ha: visual rating about 10 d after treatment, read-out: Corn plant response rating (0 to 100 scale); for Corn plant response rating (crop injury, 0 = no effect, 100 = complete kill) at 500 g/ha: 500 g ai/ha, visual injury, 0 to 100 scale (0 no effect, 100 complete control), approx. 10 d
In short: as §1

[3] = tested on: wheat (Triticum aestivum); assay: Test A postemergence; conditions: Triticum aestivum, post-emergence, 240 h, Postemergence; for plant injury at 125 g/ha: 125 g ai/ha; for plant injury at 500 g/ha: 500 g ai/ha, visual injury, 0 to 100 scale (0 no effect, 100 complete control), approx. 10 d
In short: as §1

[4] = tested on: Galium (catchweed bedstraw, Galium aparine); assay: Test A postemergence; conditions: Galium, post-emergence, 240 h, Postemergence; for pest or weed control at 125 g/ha: 125 g ai/ha; for pest or weed control at 500 g/ha: 500 g ai/ha, visual injury, 0 to 100 scale (0 no effect, 100 complete control), approx. 10 d
In short: as §1

[5] = tested on: ragweed (common ragweed, Ambrosia elatior); assay: Test A postemergence; conditions: Ambrosia artemisiifolia, post-emergence, 240 h, Postemergence; for pest or weed control at 125 g/ha: 125 g ai/ha; for pest or weed control at 500 g/ha: 500 g ai/ha, visual injury, 0 to 100 scale (0 no effect, 100 complete control), approx. 10 d
In short: as §1

Kochia (Kochia scoparia) [6] = assay: Test A postemergence; conditions: Bassia scoparia, post-emergence, 240 h, Postemergence; for pest or weed control at 125 g/ha: 125 g ai/ha; for pest or weed control at 500 g/ha: 500 g ai/ha, visual injury, 0 to 100 scale (0 no effect, 100 complete control), approx. 10 d
In short: as §1

[7] = tested on: blackgrass (Alopecurus myosuroides); assay: Test A postemergence; conditions: Alopecurus myosuroides, post-emergence, 240 h, Postemergence; for pest or weed control at 125 g/ha: 125 g ai/ha; for pest or weed control at 500 g/ha: 500 g ai/ha, visual injury, 0 to 100 scale (0 no effect, 100 complete control), approx. 10 d
In short: as §1

[8] = tested on: giant foxtail (Setaria faberii); assay: Test A postemergence; conditions: Setaria faberi, post-emergence, 240 h, Postemergence; for pest or weed control at 125 g/ha: 125 g ai/ha; for pest or weed control at 500 g/ha: 500 g ai/ha, visual injury, 0 to 100 scale (0 no effect, 100 complete control), approx. 10 d
In short: as §1

[9] = tested on: barnyardgrass (Echinochloa crus-galli); assay: Test A postemergence; conditions: Echinochloa crus-galli, post-emergence, 240 h, Postemergence; for pest or weed control at 125 g/ha: 125 g ai/ha; for pest or weed control at 500 g/ha: 500 g ai/ha, visual injury, 0 to 100 scale (0 no effect, 100 complete control), approx. 10 d
In short: as §1

[10] = tested on: sedge, umbrella (small-flower umbrella sedge, Cyperus difformis); assay: Test B flooded paddy test; conditions: Cyperus difformis, 250 g ai/ha, Flood, read-out: Sedge, Umbrella plant response rating
In short: (§2)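 Greenhouse paddy pots with 2-leaf stage plants received compound by direct addition to floodwater 3 cm deep, kept at that level. Scored visually at 13–15 d versus controls (0 no effect; 100 complete control).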

rice (Oryra sativa) = assay: Test B flooded paddy test; conditions: Oryza sativa, 250 g ai/ha, Flood, read-out: Rice plant response rating
In short: as §2

[11] = tested on: ducksalad (Heteranthera limosa); assay: Test B flooded paddy test; conditions: Heteranthera limosa, 250 g ai/ha, Flood, read-out: Ducksalad plant response rating
In short: as §2

[12] = tested on: barnyardgrass (Echinochloa crus-galli); assay: Test B flooded paddy test; conditions: Echinochloa crus-galli, 250 g ai/ha, Flood, read-out: Barnyardgrass plant response rating
In short: as §2

Kochia (Kochia scoparia) [13] = assay: Test A preemergence; conditions: Bassia scoparia, pre-emergence, 240 h; for pest or weed control at 125 g/ha: 125 g ai/ha; for pest or weed control at 500 g/ha: 500 g ai/ha
In short: as §1

[14] = visual rating about 10 d after treatment, read-out: Ryegrass, Italian plant response rating (0 to 100 scale)
[15] = read-out: Plant response rating, Ryegrass, Italian
[16] = visual rating about 10 d after treatment, read-out: Pigweed plant response rating (0 to 100 scale)
[17] = read-out: Plant response rating, Pigweed
[18] = visual rating about 10 d after treatment, read-out: Wheat plant response rating (0 to 100 scale)
[19] = read-out: Plant response rating, Wheat
[20] = visual rating about 10 d after treatment, read-out: Galium plant response rating (0 to 100 scale)
[21] = read-out: Plant response rating, Galium
[22] = visual rating about 10 d after treatment, read-out: Ragweed plant response rating (0 to 100 scale)
[23] = read-out: Plant response rating, Ragweed
[24] = visual rating about 10 d after treatment, read-out: Kochia plant response rating (0 to 100 scale)
[25] = read-out: Plant response rating, Kochia
[26] = visual rating about 10 d after treatment, read-out: Blackgrass plant response rating (0 to 100 scale)
[27] = read-out: Plant response rating, Blackgrass
[28] = visual rating about 10 d after treatment, read-out: Foxtail, Giant plant response rating (0 to 100 scale)
[29] = read-out: Plant response rating, Foxtail, Giant
[30] = visual rating about 10 d after treatment, read-out: Barnyardgrass plant response rating (0 to 100 scale, 0 no effect, 100 complete control)
[31] = read-out: Plant response rating, Barnyardgrass
[32] = 0 to 100 scale where 0 is no effect and 100 is complete control
[33] = preemergence, visual injury rating, 0 to 100 scale where 0 is no effect and 100 is complete control, approximately 10 d, read-out: Kochia plant response rating
[34] = preemergence, 0 to 100 scale where 0 is no effect and 100 is complete control, read-out: Kochia plant response rating
[35] = scale of 0 to 100 where 0 is no effect and 100 is complete control

Work on `CSc1ccccc1NC(=O)[C@H]1C(=O)NC[C@@H]1c1cc(C)cc(F)c1` [Compound 1306] yielded a pest or weed control at 125 g/ha [1, 14] of 0%, a pest or weed control at 500 g/ha [1, 15] of 0% and a pest or weed control at 125 g/ha [2, 16] of 0%. The pest or weed control at 500 g/ha [2, 17] was 0%, the plant injury at 125 g/ha (corn (Zea mays); 125 g ai/ha) was 0% and the Corn plant response rating (crop injury, 0 = no effect, 100 = complete kill) at 500 g/ha (corn (Zea mays)) was 0%. It also gave a plant injury at 125 g/ha [3, 18] of 0%, a plant injury at 500 g/ha [3, 19] of 0% and a pest or weed control at 125 g/ha [4, 20] of 20%. It also gave a pest or weed control at 500 g/ha [4, 21] of 40%, a pest or weed control at 125 g/ha [5, 22] of 0% and a pest or weed control at 500 g/ha [5, 23] of 0%. It also gave a pest or weed control at 125 g/ha (Kochia (Kochia scoparia) [6]; [24]) of 0%, a pest or weed control at 500 g/ha (Kochia (Kochia scoparia) [6]; [25]) of 60% and a pest or weed control at 125 g/ha [7, 26] of 0%. The pest or weed control at 500 g/ha [7, 27] was 0%, the pest or weed control at 125 g/ha [8, 28] was 0% and the pest or weed control at 500 g/ha [8, 29] was 20%. For the same molecule, the pest or weed control at 125 g/ha [9, 30] was 20%, the pest or weed control at 500 g/ha [9, 31] was 90% and the pest or weed control at 250 g/ha [10, 32] was 0%. The pest or weed control at 250 g/ha (rice (Oryra sativa); [32]) was 0%, the pest or weed control at 250 g/ha [11, 32] was 100% and the pest or weed control at 250 g/ha [12, 32] was 20%. For the same molecule, the pest or weed control at 125 g/ha (Kochia (Kochia scoparia) [13]; [33]) was 0% and the pest or weed control at 500 g/ha (Kochia (Kochia scoparia) [13]; [34]) was 70%.

For `Cc1nc([C@H]2CN(C)C(=O)[C@@H]2C(=O)Nc2ccccc2F)cs1` [Compound 1280], the pest or weed control at 125 g/ha [1, 14] was 0%, the pest or weed control at 500 g/ha [1, 15] was 0% and the pest or weed control at 125 g/ha [2, 16] was 0%. It also gave a pest or weed control at 500 g/ha [2, 17] of 0%, a plant injury at 125 g/ha (corn (Zea mays); 125 g ai/ha) of 0% and a Corn plant response rating (crop injury, 0 = no effect, 100 = complete kill) at 500 g/ha (corn (Zea mays)) of 0%. It also gave a plant injury at 125 g/ha [3, 18] of 0%, a plant injury at 500 g/ha [3, 19] of 0% and a pest or weed control at 125 g/ha [4, 20] of 0%. The pest or weed control at 500 g/ha [4, 21] was 0%, the pest or weed control at 125 g/ha [5, 22] was 0% and the pest or weed control at 500 g/ha [5, 23] was 0%. It also gave a pest or weed control at 125 g/ha (Kochia (Kochia scoparia) [6]; [24]) of 0%, a pest or weed control at 500 g/ha (Kochia (Kochia scoparia) [6]; [25]) of 0% and a pest or weed control at 125 g/ha [7, 26] of 0%. The pest or weed control at 500 g/ha [7, 27] was 0%, the pest or weed control at 125 g/ha [8, 28] was 0% and the pest or weed control at 500 g/ha [8, 29] was 30%. The pest or weed control at 125 g/ha [9, 30] was 0%, the pest or weed control at 500 g/ha [9, 31] was 40% and the pest or weed control at 250 g/ha [10, 32] was 0%. It also gave a pest or weed control at 250 g/ha (rice (Oryra sativa); [32]) of 0%, a pest or weed control at 250 g/ha [11, 32] of 0% and a pest or weed control at 250 g/ha [12, 32] of 0%. For the same molecule, the pest or weed control at 125 g/ha (Kochia (Kochia scoparia) [13]; [33]) was 0% and the pest or weed control at 500 g/ha (Kochia (Kochia scoparia) [13]; [34]) was 0%.

For `CN1CC[C@H](c2cccc(Cl)c2)[C@@H](C(=O)Nc2ccccc2F)C1=O` [Compound 922], the pest or weed control at 125 g/ha ([1]; visual injury after approximately 10 d, 0 to 100 scale where 0 is no effect and 100 is complete control, read-out: Plant response rating, Ryegrass, Italian) was 0%, the pest or weed control at 125 g/ha ([2]; visual injury after approximately 10 d, 0 to 100 scale where 0 is no effect and 100 is complete control, read-out: Plant response rating, Pigweed) was 0% and the Corn plant response rating (crop injury, 0 = no effect, 100 = complete kill) at 125 g/ha (corn (Zea mays); 125 g ai/ha, visual injury after approximately 10 d, 0 to 100 scale where 0 is no effect and 100 is complete control) was 0%. It also gave a plant injury at 125 g/ha ([3]; visual injury after approximately 10 d, 0 to 100 scale where 0 is no effect and 100 is complete control, read-out: Plant response rating, Wheat) of 0%, a pest or weed control at 125 g/ha ([4]; visual injury after approximately 10 d, 0 to 100 scale where 0 is no effect and 100 is complete control, read-out: Plant response rating, Galium) of 0% and a pest or weed control at 125 g/ha ([5]; visual injury after approximately 10 d, 0 to 100 scale where 0 is no effect and 100 is complete control, read-out: Plant response rating, Ragweed) of 0%. It also gave a pest or weed control at 125 g/ha (Kochia (Kochia scoparia) [6]; visual injury after approximately 10 d, 0 to 100 scale where 0 is no effect and 100 is complete control, read-out: Plant response rating, Kochia) of 0%, a pest or weed control at 125 g/ha ([7]; visual injury after approximately 10 d, 0 to 100 scale where 0 is no effect and 100 is complete control, read-out: Plant response rating, Blackgrass) of 0% and a pest or weed control at 125 g/ha ([8]; visual injury after approximately 10 d, 0 to 100 scale where 0 is no effect and 100 is complete control, read-out: Plant response rating, Foxtail, Giant) of 50%. The pest or weed control at 125 g/ha ([9]; visual injury after approximately 10 d, 0 to 100 scale where 0 is no effect and 100 is complete control, read-out: Plant response rating, Barnyardgrass) was 90%, the pest or weed control at 250 g/ha [10, 35] was 0% and the pest or weed control at 250 g/ha (rice (Oryra sativa); [35]) was 0%. It also gave a pest or weed control at 250 g/ha [11, 35] of 0%, a pest or weed control at 250 g/ha [12, 35] of 0% and a pest or weed control at 125 g/ha (Kochia (Kochia scoparia) [13]; [34]) of 0%. It also gave a pest or weed control at 500 g/ha (Kochia (Kochia scoparia) [13]; Preemergence, visual injury vs untreated controls after approximately 10 d, read-out: Kochia plant response rating (0 to 100 scale where 0 is no effect and 100 is complete control)) of 0%.

Source: patent publication US12077503B2, “Substituted cyclic amides and their use as herbicides” (FMC CORPORATION, priority 2015, dated 2024)
